ChEMBL document CHEMBL1141071, “Carbonic anhydrase inhibitors: stacking with Phe131 determines active site binding region of inhibitors as exemplified by the X-ray crystal structure of a membrane-impermeant antitumor sulfonamide complexed with isozyme II” (J Med Chem, 2005)

Molecular target: Carbonic anhydrase 9 (Homo sapiens, UniProt Q16790)
Description: Inhibition of catalytic domain of human recombinant carbonic anhydrase IX

`Cc1ccc(-c2cc(C(F)(F)F)nn2-c2ccc(S(N)(=O)=O)cc2)cc1` [CELECOXIB] showed a Ki of 16 nM.
